According to PMC5218480 (PLoS ONE, 2017):

System: MV-4-11 cells
Assay: Gene expression microarray analysis (Affymetrix PrimeView) and GSEA
Format: cell-based, human
Parameters: RFU PODN (11730768_x_at) / Fold change /veh PODN (11730768_x_at) / RFU LINC00158 (11744669_a_at) / Fold change /veh LINC00158 (11744669_a_at) / RFU DUSP10 (11751237_a_at) / Fold change /veh DUSP10 (11751237_a_at) / RFU ID3 (11757404_x_at) / Fold change /veh ID3 (11757404_x_at) / RFU PLEKHG5 (11737974_s_at) / Fold change /veh PLEKHG5 (11737974_s_at) / RFU LRRC4B (11730491_at) / Fold change /veh LRRC4B (11730491_at) / RFU GIMAP4 (11747438_a_at) / Fold change /veh GIMAP4 (11747438_a_at) / RFU KRT8 (11758183_x_at) / Fold change /veh KRT8 (11758183_x_at) / RFU CNN1 (11734310_a_at) / Fold change /veh CNN1 (11734310_a_at) / RFU VPS37D (11726825_at) / Fold change /veh VPS37D (11726825_at) / RFU C10orf10 (11716522_x_at) / Fold change /veh C10orf10 (11716522_x_at) / RFU KIR2DL2 /// KIR2DL4 /// KIR2DL5A /// KIR2DL5B /// KIR2DS1 /// KIR2DS2 /// KIR2DS3 /// KIR2DS4 /// KIR3DL3 /// KIR3DL3 /// KIR3DS1 (11738374_at) / Fold change /veh KIR2DL2 /// KIR2DL4 /// KIR2DL5A /// KIR2DL5B /// KIR2DS1 /// KIR2DS2 /// KIR2DS3 /// KIR2DS4 /// KIR3DL3 /// KIR3DL3 /// KIR3DS1 (11738374_at) / RFU C1QL1 (11718748_at) / Fold change /veh C1QL1 (11718748_at) / RFU TMPRSS4 (11747572_a_at) / Fold change /veh TMPRSS4 (11747572_a_at) / RFU HAMP (11756126_x_at) / Fold change /veh HAMP (11756126_x_at) / RFU RNFT2 (11725882_a_at) / Fold change /veh RNFT2 (11725882_a_at) / RFU NR4A2 (11747474_a_at) / Fold change /veh NR4A2 (11747474_a_at) / RFU ABCC12 (11746883_a_at) / Fold change /veh ABCC12 (11746883_a_at) / RFU TMEM136 (11760407_x_at) / Fold change /veh TMEM136 (11760407_x_at) / RFU CLDN22 /// WWC2 (11732394_at) / Fold change /veh CLDN22 /// WWC2 (11732394_at) / RFU HLA-DPB1 (11760878_x_at) / Fold change /veh HLA-DPB1 (11760878_x_at) / RFU SPINT1 (11716480_a_at) / Fold change /veh SPINT1 (11716480_a_at) / RFU GAP43 (11754022_s_at) / Fold change /veh GAP43 (11754022_s_at) / RFU A4GNT (11735810_at) / Fold change /veh A4GNT (11735810_at) / RFU PRB3 (11715151_x_at) / Fold change /veh PRB3 (11715151_x_at) / RFU TUBB4B (11761932_at) / Fold change /veh TUBB4B (11761932_at) / RFU CAPN14 (11732068_a_at) / Fold change /veh CAPN14 (11732068_a_at) / RFU TMCC2 (11721928_a_at) / Fold change /veh TMCC2 (11721928_a_at) / RFU IRGQ (11745062_a_at) / Fold change /veh IRGQ (11745062_a_at) / RFU FAM174B (11720279_a_at) / Fold change /veh FAM174B (11720279_a_at) / RFU TMPRSS4 (11748680_a_at) / Fold change /veh TMPRSS4 (11748680_a_at) / RFU FAM212B (11763350_a_at) / Fold change /veh FAM212B (11763350_a_at) / RFU PLEKHG5 (11743358_a_at) / Fold change /veh PLEKHG5 (11743358_a_at) / RFU ZSCAN30 (11745921_a_at) / Fold change /veh ZSCAN30 (11745921_a_at) / RFU CMKLR1 (11741424_a_at) / Fold change /veh CMKLR1 (11741424_a_at) / RFU LOC101060620 /// MAPK8IP1 (11723275_at) / Fold change /veh LOC101060620 /// MAPK8IP1 (11723275_at) / RFU SPTSSB (11747773_x_at) / Fold change /veh SPTSSB (11747773_x_at) / RFU PRSS12 (11739890_at) / Fold change /veh PRSS12 (11739890_at) / RFU BIN1 (11741810_x_at) / Fold change /veh BIN1 (11741810_x_at) / RFU WNT11 (11732464_a_at) / Fold change /veh WNT11 (11732464_a_at) / RFU C10orf10 (11716521_a_at) / Fold change /veh C10orf10 (11716521_a_at) / RFU C5orf56 (11738089_at) / Fold change /veh C5orf56 (11738089_at) / RFU CYB561 (11721691_x_at) / Fold change /veh CYB561 (11721691_x_at) / RFU ANKRD19P (11752326_a_at) / Fold change /veh ANKRD19P (11752326_a_at) / RFU OR2T12 /// OR2T33 /// OR2T8 (11738714_s_at) / Fold change /veh OR2T12 /// OR2T33 /// OR2T8 (11738714_s_at) / RFU VCAN (11748164_a_at) / Fold change /veh VCAN (11748164_a_at) / RFU JSRP1 (11732532_at) / Fold change /veh JSRP1 (11732532_at) / RFU KRTAP10-11 (11738290_x_at) / Fold change /veh KRTAP10-11 (11738290_x_at) / RFU MYO3A (11730013_a_at) / Fold change /veh MYO3A (11730013_a_at) / RFU EBF3 (11725865_a_at) / Fold change /veh EBF3 (11725865_a_at) / RFU CAMK2N1 (11719241_x_at) / Fold change /veh CAMK2N1 (11719241_x_at) / RFU C5orf56 (11738088_a_at) / Fold change /veh C5orf56 (11738088_a_at) / RFU OLFML3 (11715873_a_at) / Fold change /veh OLFML3 (11715873_a_at) / RFU LOC100653217 /// NTM (11731650_a_at) / Fold change /veh LOC100653217 /// NTM (11731650_a_at) / RFU MAPK11 (11762145_a_at) / Fold change /veh MAPK11 (11762145_a_at) / RFU FIZ1 (11724087_x_at) / Fold change /veh FIZ1 (11724087_x_at) / RFU OASL (11726364_x_at) / Fold change /veh OASL (11726364_x_at) / RFU SOX15 (11748057_x_at) / Fold change /veh SOX15 (11748057_x_at) / RFU CD79A (11719716_a_at) / Fold change /veh CD79A (11719716_a_at) / RFU HIST1H1D (11736915_at) / Fold change /veh HIST1H1D (11736915_at) / RFU CASKIN2 (11723855_a_at) / Fold change /veh CASKIN2 (11723855_a_at) / RFU LOC730098 (11760151_x_at) / Fold change /veh LOC730098 (11760151_x_at) / RFU OR4N2 (11742367_at) / Fold change /veh OR4N2 (11742367_at) / RFU PRRT2 (11749266_a_at) / Fold change /veh PRRT2 (11749266_a_at) / RFU SNX32 (11753110_a_at) / Fold change /veh SNX32 (11753110_a_at) / RFU CDHR5 (11726645_a_at) / Fold change /veh CDHR5 (11726645_a_at) / RFU RCAN1 (11760418_a_at) / Fold change /veh RCAN1 (11760418_a_at) / RFU FAM167A (11723789_a_at) / Fold change /veh FAM167A (11723789_a_at) / RFU FAM26E (11764081_at) / Fold change /veh FAM26E (11764081_at) / RFU ISYNA1 (11749810_s_at) / Fold change /veh ISYNA1 (11749810_s_at) / RFU ACY1 (11761880_at) / Fold change /veh ACY1 (11761880_at) / RFU 11764098_at / Fold change /veh 11764098_at / RFU SAMD14 (11745864_x_at) / Fold change /veh SAMD14 (11745864_x_at) / RFU NPB (11741838_a_at) / Fold change /veh NPB (11741838_a_at) / RFU TMPRSS6 (11731388_a_at) / Fold change /veh TMPRSS6 (11731388_a_at) / RFU KRTAP10-2 (11738614_at) / Fold change /veh KRTAP10-2 (11738614_at) / RFU ARHGAP8 /// PRR5-ARHGAP8 (11727945_x_at) / Fold change /veh ARHGAP8 /// PRR5-ARHGAP8 (11727945_x_at) / RFU KRTAP5-7 /// NADSYN1 (11734609_at) / Fold change /veh KRTAP5-7 /// NADSYN1 (11734609_at) / RFU RASL12 (11751679_a_at) / Fold change /veh RASL12 (11751679_a_at) / RFU CDKN2B (11736163_a_at) / Fold change /veh CDKN2B (11736163_a_at) / RFU PRF1 (11729649_at) / Fold change /veh PRF1 (11729649_at) / RFU, ZNF638 /// ZNF638-IT1 / Fold change vs veh, ZNF638 /// ZNF638-IT1 / RFU, PANK3 / Fold change vs veh, PANK3 / RFU, SH3YL1 / Fold change vs veh, SH3YL1 / RFU, ZEB2 / Fold change vs veh, ZEB2 / RFU, NRIP1 / Fold change vs veh, NRIP1 / RFU, PTTG1IP / Fold change vs veh, PTTG1IP / RFU, CAPN2 / Fold change vs veh, CAPN2 / RFU, MED14 / Fold change vs veh, MED14 / RFU, SNORA58 / Fold change vs veh, SNORA58 / RFU, C1orf63 / Fold change vs veh, C1orf63 / RFU, LRRFIP1 / Fold change vs veh, LRRFIP1 / RFU, NDUFAF7 / Fold change vs veh, NDUFAF7 / RFU, SLC12A2 / Fold change vs veh, SLC12A2 / RFU, IBTK / Fold change vs veh, IBTK / RFU, ESF1 / Fold change vs veh, ESF1 / Fold change vs veh, TMEM50B / RFU, TAOK1 / Fold change vs veh, TAOK1 / RFU, ACBD3 / Fold change vs veh, ACBD3 / RFU, TMA16 / Fold change vs veh, TMA16 / RFU, RWDD3 / Fold change vs veh, RWDD3 / RFU, BCAT1 / Fold change vs veh, BCAT1 / RFU, EDEM3 / Fold change vs veh, EDEM3 / RFU, TMEM33 / Fold change vs veh, TMEM33 / RFU, WDR75 / Fold change vs veh, WDR75 / RFU, AHCTF1 / Fold change vs veh, AHCTF1 / RFU, TFRC / Fold change vs veh, TFRC / RFU, ZDHHC17 / Fold change vs veh, ZDHHC17 / RFU, NOM1 / Fold change vs veh, NOM1 / RFU, ARL8B / Fold change vs veh, ARL8B / RFU, ZBTB11 / Fold change vs veh, ZBTB11 / RFU, TAMM41 / Fold change vs veh, TAMM41 / RFU, KIAA1704 /// LOC100996395 / Fold change vs veh, KIAA1704 /// LOC100996395 / RFU, ING1 / Fold change vs veh, ING1 / RFU, TRMT61B / Fold change vs veh, TRMT61B / RFU, FUBP3 / Fold change vs veh, FUBP3 / RFU, TP53 / Fold change vs veh, TP53 / RFU, TNKS2 / Fold change vs veh, TNKS2 / RFU, ZFP14 / Fold change vs veh, ZFP14 / RFU, ACTR2 / Fold change vs veh, ACTR2 / RFU, PPP3R1 / Fold change vs veh, PPP3R1 / RFU, PIK3R1 / Fold change vs veh, PIK3R1 / RFU, HNRNPA1 / Fold change vs veh, HNRNPA1 / RFU, RNF170 / Fold change vs veh, RNF170 / RFU, ZNF28 / Fold change vs veh, ZNF28 / RFU, RNGTT / Fold change vs veh, RNGTT / RFU, OGT / Fold change vs veh, OGT / RFU, BRD1 / Fold change vs veh, BRD1 / RFU, MARS / Fold change vs veh, MARS / RFU, ZNF655 / Fold change vs veh, ZNF655 / RFU, FAHD1 / Fold change vs veh, FAHD1 / RFU, BDP1 / Fold change vs veh, BDP1 / RFU, LRRCC1 / Fold change vs veh, LRRCC1 / RFU, ARID1A / Fold change vs veh, ARID1A / RFU, ZNF146 / Fold change vs veh, ZNF146 / RFU, ZNF330 / Fold change vs veh, ZNF330 / RFU, GPN3 / Fold change vs veh, GPN3 / RFU, C9orf123 / Fold change vs veh, C9orf123 / RFU, N4BP2L2 / Fold change vs veh, N4BP2L2 / RFU, ARFIP1 / Fold change vs veh, ARFIP1 / RFU, FAM179B / Fold change vs veh, FAM179B / RFU, BCL10 / Fold change vs veh, BCL10 / RFU, UHRF1BP1L / Fold change vs veh, UHRF1BP1L / RFU, BET1 / Fold change vs veh, BET1 / RFU, CNOT2 / Fold change vs veh, CNOT2 / RFU, ZNF268 / Fold change vs veh, ZNF268 / Fold change vs veh, ZNF507 / RFU, DGCR2 / Fold change vs veh, DGCR2 / RFU, WDSUB1 / Fold change vs veh, WDSUB1 / Fold change vs veh, HSP90B1 /// MIR3652 / RFU, ADSS / Fold change vs veh, ADSS / RFU, GK / Fold change vs veh, GK / RFU, ZNF148 / Fold change vs veh, ZNF148 / RFU, TAF9 / Fold change vs veh, TAF9 / RFU, SLC1A5 / Fold change vs veh, SLC1A5 / RFU, SLMO2 / Fold change vs veh, SLMO2 / RFU, ABCC4 / Fold change vs veh, ABCC4 / RFU, LOC101060439 /// RAP1B / Fold change vs veh, LOC101060439 /// RAP1B / RFU, RFX7 / Fold change vs veh, RFX7 / RFU, GTPBP10 / Fold change vs veh, GTPBP10 / RFU, CNEP1R1 / Fold change vs veh, CNEP1R1 / RFU, BIVM-ERCC5 /// ERCC5 / Fold change vs veh, BIVM-ERCC5 /// ERCC5 / RFU, ILF3 / Fold change vs veh, ILF3 / RFU 11762660_at / Fold change /veh 11762660_at / RFU VCAN (11757783_s_at) / Fold change /veh VCAN (11757783_s_at) / RFU DDX43 (11728927_at) / Fold change /veh DDX43 (11728927_at) / RFU KRT8 (11758188_x_at) / Fold change /veh KRT8 (11758188_x_at) / RFU NKD1 (11759106_at) / Fold change /veh NKD1 (11759106_at) / RFU SRD5A1 (11742802_a_at) / Fold change /veh SRD5A1 (11742802_a_at) / RFU TPSAB1 /// TPSB2 (11721975_s_at) / Fold change /veh TPSAB1 /// TPSB2 (11721975_s_at) / RFU GSTM3 (11746129_a_at) / Fold change /veh GSTM3 (11746129_a_at) / RFU IL23R (11737362_x_at) / Fold change /veh IL23R (11737362_x_at) / RFU TMEM51 (11727254_a_at) / Fold change /veh TMEM51 (11727254_a_at) / RFU PIWIL2 (11732686_x_at) / Fold change /veh PIWIL2 (11732686_x_at) / RFU ORM1 (11744905_x_at) / Fold change /veh ORM1 (11744905_x_at) / RFU CCDC152 (11743942_at) / Fold change /veh CCDC152 (11743942_at) / RFU ECM1 (11717891_a_at) / Fold change /veh ECM1 (11717891_a_at) / RFU IL23R (11748794_a_at) / Fold change /veh IL23R (11748794_a_at) / RFU TNFAIP8L3 (11732012_x_at) / Fold change /veh TNFAIP8L3 (11732012_x_at) / RFU MBOAT4 (11741988_at) / Fold change /veh MBOAT4 (11741988_at) / RFU 11764193_at / Fold change /veh 11764193_at / RFU TMEM53 (11763286_at) / Fold change /veh TMEM53 (11763286_at) / RFU MAGEB2 (11727129_at) / Fold change /veh MAGEB2 (11727129_at) / RFU TMEM200A (11744735_a_at) / Fold change /veh TMEM200A (11744735_a_at) / RFU CCDC152 (11751479_a_at) / Fold change /veh CCDC152 (11751479_a_at) / RFU FAM211A (11726209_a_at) / Fold change /veh FAM211A (11726209_a_at) / RFU RGS16 (11746705_a_at) / Fold change /veh RGS16 (11746705_a_at) / RFU VCAN (11755009_s_at) / Fold change /veh VCAN (11755009_s_at) / RFU RHOB (11743442_s_at) / Fold change /veh RHOB (11743442_s_at) / RFU RGS16 (11720943_a_at) / Fold change /veh RGS16 (11720943_a_at) / RFU RGS16 (11720944_at) / Fold change /veh RGS16 (11720944_at) / RFU, VPS4B / Fold change vs veh, VPS4B / RFU, CREB1 / Fold change vs veh, CREB1 / RFU, DNAJC13 / Fold change vs veh, DNAJC13 / RFU, GNAQ / Fold change vs veh, GNAQ / RFU, CDK5R1 / Fold change vs veh, CDK5R1 / RFU, ZRANB3 / Fold change vs veh, ZRANB3 / RFU, CUL4A / Fold change vs veh, CUL4A / RFU, CCNY / Fold change vs veh, CCNY / RFU, UFL1 / Fold change vs veh, UFL1 / RFU, COG3 / Fold change vs veh, COG3 / RFU, DIAPH2 / Fold change vs veh, DIAPH2 / RFU, SKA2 / Fold change vs veh, SKA2 / RFU, AFF3 / Fold change vs veh, AFF3 / RFU, LMF1 / Fold change vs veh, LMF1 / RFU, IPO11 / Fold change vs veh, IPO11 / RFU, DFFB / Fold change vs veh, DFFB / RFU, FOXP1 / Fold change vs veh, FOXP1 / RFU, CARD8 / Fold change vs veh, CARD8 / RFU, STRN3 / Fold change vs veh, STRN3 / RFU, ADK / Fold change vs veh, ADK / RFU, RASSF2 / Fold change vs veh, RASSF2 / RFU, WIPF1 / Fold change vs veh, WIPF1 / RFU, LARP1B / Fold change vs veh, LARP1B / RFU, RASA1 / Fold change vs veh, RASA1 / RFU, RB1 / Fold change vs veh, RB1 / RFU, PPFIA1 / Fold change vs veh, PPFIA1 / RFU, MAT2A / Fold change vs veh, MAT2A / RFU, CCT5 / Fold change vs veh, CCT5 / RFU, WDR92 / Fold change vs veh, WDR92 / RFU, CUX1 / Fold change vs veh, CUX1 / RFU, TTC7A / Fold change vs veh, TTC7A / RFU, TMEM135 / Fold change vs veh, TMEM135 / RFU, DEPTOR / Fold change vs veh, DEPTOR / RFU, CPM / Fold change vs veh, CPM / RFU, DNAJB6 / Fold change vs veh, DNAJB6 / RFU, CACNA2D3 / Fold change vs veh, CACNA2D3 / RFU, DTX4 / Fold change vs veh, DTX4 / RFU, TFCP2 / Fold change vs veh, TFCP2 / RFU, GMCL1 /// GMCL1P1 / Fold change vs veh, GMCL1 /// GMCL1P1 / RFU, AEBP2 / Fold change vs veh, AEBP2 / RFU, SNHG1 /// SNORD22 /// SNORD25 /// SNORD26 /// SNORD27 /// SNORD28 /// SNORD29 /// SNORD31 / Fold change vs veh, SNHG1 /// SNORD22 /// SNORD25 /// SNORD26 /// SNORD27 /// SNORD28 /// SNORD29 /// SNORD31 / Fold change (Aza/veh), C12orf56 (ProbeSet 11735607_a_at) / Fold change (ACY-1035/veh), C12orf56 (ProbeSet 11735607_a_at) / Fold change (Aza/veh), FGFR1OP (ProbeSet 11751329_s_at) / Fold change (ACY-1035/veh), FGFR1OP (ProbeSet 11751329_s_at) / Fold change (Aza/veh), VPS36 (ProbeSet 11739960_a_at) / Fold change (ACY-1035/veh), VPS36 (ProbeSet 11739960_a_at) / RFU SYPL1 (11715823_x_at) / Fold change /veh SYPL1 (11715823_x_at) / RFU IGFBP7 (11715501_s_at) / Fold change /veh IGFBP7 (11715501_s_at) / RFU REEP3 (11722064_at) / Fold change /veh REEP3 (11722064_at) / RFU IGLL1 (11728026_x_at) / Fold change /veh IGLL1 (11728026_x_at): dose or concentration left out as unconfirmed
Conditions: MV-4-11 cells, 48 hours

With `Nc1ncn([C@@H]2O[C@H](CO)[C@@H](O)[C@H]2O)c(=O)n1` [azacitidine] the “RFU CYB561 (11721691_x_at)” value was 13.47 RFU.
